Experimental data reported in article PMC11561622, “Evaluating Antimalarial Proteasome Inhibitors for Efficacy in Babesia Blood Stage Cultures” (ACS Omega, 2024).
Entries after “also recorded” stand apart in the source; their conditions may differ.

How the values were obtained:
[1] = tested on: B. divergens proteasome β5 subunit; assay type: biochemical, Babesia divergens
Experimental: (§1) B. divergens and B. microti protein lysates were prepared from infected red blood cells. Briefly, red blood cells were lysed with 0.15% saponin prepared in 1× Phosphate-Buffered Saline (PBS), pH 7.5, to release intact parasites. Parasites were washed with 1× PBS, pH 7.5 (PBS), by centrifugation and the pellets were stored at −80 °C in PBS plus 20% glycerol. To prepare protein lysates for enzymatic assays, parasites were thawed and transferred to 50 mM HEPES (pH 7.5), 10 μM E64, 100 μM AESBF, 1 μM Pepstatin A, and 1 mM DTT (all Sigma-Aldrich). Cells were ruptured by ultrasonication with an amplitude of 0.5 for 3 cycles of 15 s on ice. To prepare protein lysates for activity-based probing and proteasome purification, parasites were thawed and transferred to 20 mM Tris-HCl, pH 7.5, 1 mM DTT, 10 μM E64, and 5% glycerol. The lysate was sonicated on ice for 3 times and clarified by centrifugation at 17,000g for 10 min at 4 °C.
To further improve the detection of the β5 subunit activity with the Suc-LLVY-amc substrate of the Babesia proteasome as previously published,[27] we aimed to further optimize assay conditions. However, to reduce the number of experimental animals in the study, assay conditions were optimized using protein lysates of B. divergens, which can be grown in vitro, instead of B. microti lysates, which need to be maintained in mice. […] Assay conditions were optimized in 50 μL volumes in round-bottom 96-well plates. Two assay buffers were evaluated. Buffer A, as described previously,[27] consists of 20 mM HEPES, pH 8, 1 mM ATP, and 1 μM E64, while Buffer B consists of 50 mM HEPES, pH 7.5, 5 mM ATP, 10 μM E64, 100 μM AESBF, 1 μM Pepstatin A, and 1 mM DTT. Buffers A and B were tested with either 0.02% SDS or 6.67 ng of PA28 as activators of the proteasome activity. […] The release of the AMC fluorophore was monitored at 37 °C in a Synergy HTX multimode reader (BioTek) with excitation and emission wavelengths set to 340 and 460 nm, respectively.
Proteasome activity in B. microti and B. divergens lysates was screened in the presence of carmaphycin B (CPB) and numerous analogs that were previously designed to target the P. falciparum 20S proteasome.[30] A pool of lysates was made for each species to ensure that equal amounts of the lysates were used in each inhibition reaction. Inhibitors were transferred to black 384-well plates with the ATS acoustic transfer system (ATS-100, Biosera). Lysates were incubated with inhibitors for 30 min at room temperature and activity was assayed in 30 μL reactions. Each reaction mixture contained 5 μL of Babesia lysate, 10 nL of the inhibitor (final concentration of 133.33 nM), and 25 μL of assay buffer with 25 μM substrate succinyl-Leu-Leu-Val-Tyr-7-amido-4-methylcoumarin (Suc-LLVY-amc). The release of the AMC fluorophore was monitored at 37 °C in a Synergy HTX multimode reader (BioTek Instruments, Winooski, VT) with excitation and emission wavelengths set to 340 and 460 nm, respectively. Activity was quantified as RFU per second and normalized to the DMSO control reactions.

HepG2 cells = conditions: previously reported; cited from earlier work
[2] = tested on: B. microti proteasome β5 subunit; assay: β5 proteasome activity in B. microti lysates (Suc-LLVY-amc); assay type: biochemical, Babesia microti; conditions: 133.33 nM inhibitor, relative to DMSO
Experimental: as §1
To further improve the detection of the β5 subunit activity with the Suc-LLVY-amc substrate of the Babesia proteasome as previously published,[27] we aimed to further optimize assay conditions. However, to reduce the number of experimental animals in the study, assay conditions were optimized using protein lysates of B. divergens, which can be grown in vitro, instead of B. microti lysates, which need to be maintained in mice. […] Two assay buffers were evaluated. […] The release of the AMC fluorophore was monitored at 37 °C in a Synergy HTX multimode reader (BioTek) with excitation and emission wavelengths set to 340 and 460 nm, respectively.
Proteasome activity in B. microti and B. divergens lysates was screened in the presence of carmaphycin B (CPB) and numerous analogs that were previously designed to target the P. falciparum 20S proteasome.[30] […] The release of the AMC fluorophore was monitored at 37 °C in a Synergy HTX multimode reader (BioTek Instruments, Winooski, VT) with excitation and emission wavelengths set to 340 and 460 nm, respectively. Activity was quantified as RFU per second and normalized to the DMSO control reactions.

Structure (SMILES): CCCCCC(=O)N[C@H](C(=O)N[C@@H](CCS(C)(=O)=O)C(=O)N[C@@H](CC(C)C)C(=O)[C@@]1(C)CO1)C(C)C [carmaphycin B]
- inhibition of β5 activity in B. divergens lysate (in words) [1]: to the same extent as CFZ; also recorded: completely inactivate
- EC50 (HepG2 cells): 12.6 ± 1.4 nM
- inhibition of β5 activity in B. microti lysate (in words) [2]: to the same extent as CFZ
- inhibition of β5 activity in B. microti lysate (in words) ([2]; listed as CPB): inhibited
